Laboratory results reported in US10791730B2, “Composition and methods for cryopreservation of hUTC” (DePuy Synthes Products, Inc., priority 2016, dated 2020).

Test system: umbilical cord tissue
Assay: Isolation of cells from umbilical cord tissue using varying enzyme combinations
Format: cell-based, human
Set-up: key: + = good; ++ = very good; +++ = excellent; X = no success
Settings: enzyme digest of umbilical cord tissue
Protocol: Umbilical cords were obtained from National Disease Research Interchange (NDRI, Philadelphia, Pa.). The tissues were obtained following normal deliveries. The cell isolation protocols were performed aseptically in a laminar flow hood. To remove blood and debris, the cord was washed in phosphate buffered saline (PBS; Invitrogen, Carlsbad, Calif.) in the presence of penicillin at 100 U/ml, streptomycin at […] and amphotericin B at 0.25 μg/ml (Invitrogen Carlsbad, Calif.). The tissues were then mechanically dissociated in 150 cm^2 tissue culture plates in the presence of 50 ml of medium (DMEM-low glucose or DMEM-high glucose; Invitrogen) until the tissue was minced into a fine pulp. The chopped tissues were transferred to 50 ml conical tubes (approximately 5 g of tissue per tube).
The tissue was then digested in either DMEM-low glucose medium or DMEM-high glucose medium, each containing penicillin at 100 U/ml, streptomycin at […], amphotericin B at 0.25 μg/ml and the digestion enzymes. In some experiments an enzyme mixture of collagenase and dispase was used (“C:D”) (collagenase (Sigma, St Louis, Mo.), 500 U/ml; and dispase (Invitrogen), 50 U/ml, in DMEM-Low glucose medium). In other experiments a mixture of collagenase, dispase and hyaluronidase (“C:D:H”) was used (C:D:H=collagenase, 500 U/ml; dispase, 50 U/ml; and hyaluronidase (Sigma), 5 U/ml, in DMEM-Low glucose). The conical tubes containing the tissue, medium and digestion enzymes were incubated at 37° C. in an orbital shaker (Environ, Brooklyn, N.Y.) at 225 rpm for 2 hours.
After digestion, the tissues were centrifuged at 150×g for 5 minutes, the supernatant was aspirated. The pellet was resuspended in 20 ml of growth medium (DMEM:Low glucose (Invitrogen), 15% (v/v) fetal bovine serum (FBS; defined fetal bovine serum; Lot #AND18475; Hyclone, Logan, Utah), 0.001% (v/v) 2-mercaptoethanol (Sigma), penicillin at 100 U/ml, streptomycin at 100 μg/ml, and amphotericin B at 0.25 μg/ml (each from Invitrogen, Carlsbad, Calif.)). The cell suspension was filtered through a 70 μm nylon BD FALCON Cell Strainer (BD Biosciences, San Jose, Calif.). An additional 5 ml rinse comprising growth medium was passed through the strainer. The cell suspension was then passed through a 40-μm nylon cell strainer (BD Biosciences, San Jose, Calif.) and chased with a rinse of an additional 5 ml of growth medium.
The filtrate was resuspended in growth medium (total volume 50 ml) and centrifuged at 150×g for 5 minutes. The supernatant was aspirated and the cells were resuspended in 50 ml of fresh growth medium. […]
After the final centrifugation, supernatant was aspirated and the cell pellet was resuspended in 5 ml of fresh growth medium. The number of viable cells was determined using trypan blue staining. […]

Collagenase
Cell Expansion: X | Cells Isolated: X

Hyaluronidase
Cell Expansion: X | Cells Isolated: X
